In experiment [1] the target is T1, His-tagged human Aurora A (Homo sapiens, UniProt O14965).
T1 construct: His (N); made in house; host or cells: Escherichia coli BL21-CodonPlus(DE3)-RIL
T1 sequence (O14965 1-403): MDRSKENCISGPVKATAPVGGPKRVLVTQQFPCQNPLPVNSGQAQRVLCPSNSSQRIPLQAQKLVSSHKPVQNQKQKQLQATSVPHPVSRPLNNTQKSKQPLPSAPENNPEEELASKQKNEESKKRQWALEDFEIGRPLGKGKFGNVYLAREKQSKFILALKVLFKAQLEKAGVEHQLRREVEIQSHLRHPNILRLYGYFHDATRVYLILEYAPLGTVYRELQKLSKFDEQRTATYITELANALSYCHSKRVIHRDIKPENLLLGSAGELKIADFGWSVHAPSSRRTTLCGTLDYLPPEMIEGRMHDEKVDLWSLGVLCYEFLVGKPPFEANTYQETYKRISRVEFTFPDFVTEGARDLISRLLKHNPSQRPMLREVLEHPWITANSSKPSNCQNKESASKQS
Description: Aurora A inhibitory activity (IMAP fluorescence polarization). The conditions noted are these: 20 μM ATP, 30° C., 120 minutes. The class given is biochemical. The source says: cDNA of N-terminal His-tagged human Aurora A was integrated into an expression vector, which was then highly expressed in Escherichia coli BL21-CodonPlus(DE3)-RIL cells. The Escherichia coli was harvested and lysed, and then the His-tagged human Aurora A protein was applied onto a nickel chelate column and eluted from the column with imidazole. The active fractions were desalted with a desalting column to give a purified enzyme.
For measurement of the activity of Aurora A, the substrate used was a synthetic peptide (5-FAM (5-carboxyfluorescein)-γ-aminobutyric acid-Ala-Leu-Arg-Arg-Ala-Ser-Leu-Gly-NH2) (SEQ.ID.NO.: 1), which was purchased from Toray Research Center, Inc.
For the phosphorylation reaction, the method by Upstate, Inc. [Kinase Profiler™ Assay Protocols] was referred to, and phosphorylation of the substrate was detected using IMAP® technology (Molecular Devices, Co. Ltd.) (Gaudet E W. et. al, J. Biomol. Screen, 8, 164-175 (2003)). Concretely, the phosphorylation reaction and the detection were carried out as follows:
The phosphorylation reaction was conducted using 384 well plate, and the reaction volume was 10 μl/well. The reaction buffer is comprised of 50 mM Tris-chloride buffer (pH 7.4), 15 mM magnesium acetate, and 0.2 mM ethylenediamine-N,N,N′,N′-tetraacetic acid (EDTA). Thereto, the purified Aurora A protein, 100 nM of the peptide substrate, and 20 μM of adenosine 5′-triphosphate (ATP) were added, and then the reaction was carried out at 30° C. for 120 minutes.
Thereafter, in order to terminate and detect the reaction, 30 μl of the IMAP (registered trademark) binding reagent (IMAP Progressive Binding Reagent, R7284) that had been diluted (1:400) in the 1×IMAP binding buffer A (IMAP Progressive Binding Buffer A, 5× stock, R7282) was added to each well. The solution stood still for 60 minutes in the dark, and then fluorescence polarization was measured using a high-end microplate reader (excitation wavelength: 485 nm; emission wavelength: 520 nm).
The compound to be tested was added to the reaction system such that a dilution series of the compound in dimethylsulfoxide (DMSO) was prepared, and then 0.5 μL of this solution was added for the testing to each well. Each control well was provided by adding 0.5 μL of DMSO to the well in place of the DMSO solution containing the compound to be tested.
(In general: In fluorescence polarisation assays a small probe gives low polarisation when free and higher when bound to something large.)

Experiment [2] has as its target T2, GST-tagged human Aurora B(AurB)/His-tagged human INCENP complex proteins (Homo sapiens, UniProt Q96GD4).
T2 construct: GST; purchased Carna Biosciences, Inc
Description: Aurora B inhibitory activity (Method A, IMAP kit). The class given is biochemical. The settings on record: 40 μM ATP, 25° C., 45 minutes. As to the method: An assay development kit for IMAP (registered trademark) (Aurora B), purchased from Carna Biosciences, Inc., was used for phosphorylation reaction, and the phosphorylation of a substrate was detected using the IMAP technology. The assay development kit used is comprised of an assay buffer, GST-tagged human Aurora B(AurB)/His-tagged human INCENP complex proteins (amino acid sequence: 803-916, AAU04398.1), and an ATP/substrate solution. Using the same, the phosphorylation reaction was conducted in accordance with a partially revised protocol attached to the kit, and then the phosphorylation of the substrate was detected using the IMAP technology.
For the phosphorylation reaction, 384 well plate was used, and the reaction volume was 10 μl/well. The composition of the reaction buffer (assay buffer) is comprised of 20 mM of HEPES buffer (pH 7.4), 0.01% Tween-20, and 2 mM of dithiothreitol (DTT). Thereto, AurB/INCENP complex protein, 100 nM of the substrate, and 40 μM of ATP, and 1 mM of magnesium salt were added, and then the reaction was conducted at 25° C. for 45 minutes. Thereafter, in order to terminate and detect the reaction, 30 μl of the IMAP (registered trademark) binding reagent (IMAP Progressive Binding Reagent, R7284) that had been diluted (1:400) in the 1×IMAP binding buffer A (IMAP Progressive Binding Buffer A, 5× stock, R7282) was added to each well. The solution stood still for 60 minutes in the dark, and then fluorescence polarization was measured using a high-end microplate reader (excitation wavelength: 485 nm; emission wavelength: 520 nm).
The compound to be tested was added to the reaction system such that a dilution series of the compound in DMSO was prepared, and then 0.5 μL of this solution was added for the testing to each well. Each control well was provided by adding 0.5 μL of DMSO to the well in place of the DMSO solution containing the compound to be tested.

Counter-ions that a name gives are not always drawn.

The IC50 is the midpoint of a concentration-inhibition curve. Low readings indicate greater potency, high ones weaker potency.

T2 sequence (Q96GD4 whole entry): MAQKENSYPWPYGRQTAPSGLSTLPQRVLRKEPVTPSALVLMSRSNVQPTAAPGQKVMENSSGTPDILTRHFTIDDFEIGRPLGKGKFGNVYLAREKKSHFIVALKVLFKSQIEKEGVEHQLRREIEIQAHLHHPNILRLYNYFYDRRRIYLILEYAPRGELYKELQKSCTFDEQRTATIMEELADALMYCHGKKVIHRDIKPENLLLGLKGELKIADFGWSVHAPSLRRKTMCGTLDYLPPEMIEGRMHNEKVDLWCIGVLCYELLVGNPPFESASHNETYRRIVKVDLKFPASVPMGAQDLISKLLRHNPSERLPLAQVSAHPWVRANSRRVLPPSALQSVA
T2 sequence (Q9NQS7 803-916 partner limits assumed): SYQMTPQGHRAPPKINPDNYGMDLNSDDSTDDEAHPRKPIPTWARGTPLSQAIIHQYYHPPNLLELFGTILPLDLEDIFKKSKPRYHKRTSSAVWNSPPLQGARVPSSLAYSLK

Take `Cl.O=C(c1cccc(Cl)c1F)N1CCC(O)(Cc2cccc(Nc3cc[nH]n3)n2)CC1` [Example 2, 1-(3-chloro-2-fluorobenzoyl)-4-((6-(1H-pyrazol-3-ylamino)pyridin-2-yl)methyl)piperidin-4-ol hydrochloride]: the IC50 in experiment [1] was found to be 0.91 nM; in experiment [2], 369 nM.
`O=c1[nH]nc(C2(Cc3cccc(Nc4cc[nH]n4)n3)CCN(S(=O)(=O)c3ccccc3C(F)(F)F)CC2)o1` [Example 14, 5-(4-((6-(1H-pyrazol-3-ylamino)pyridin-2-yl)methyl)-1-((2-(trifluoromethyl)phenyl)sulfonyl)piperidin-4-yl)-1,3,4-oxadiazol-2(3H)-one trifluoroacetate]: the figures for the concentration for half-maximal inhibition (IC50) in experiment [1] and in experiment [2] were 0.4 nM and more than 1000 nM, respectively.
For `O=c1[nH]nc(C2(Cc3cccc(Nc4cc[nH]n4)n3)CCN(C(c3cccc(C(F)(F)F)c3)C(F)(F)F)CC2)o1` (stereo not drawn) [Example 19, 5-(4-((6-(1H-pyrazol-3-ylamino)pyridin-2-yl)methyl)-1-(2,2,2-trifluoro-1-(3-(trifluoromethyl)phenyl)ethyl)piperidin-4-yl)-1,3,4-oxadiazol-2(3H)-one trifluoroacetate], in that order: 1.27 nM and more than 1000 nM.

The record behind these values is US8519136B2, “Aminopyridine derivatives having aurora a selective inhibitory action” (MSD K.K., priority 2008, dated 2013).
